The values below come from paper PMC9283133, “Human cytosolic transaminases: side activities and patterns of discrimination towards physiologically available alternative substrates” (Cellular and Molecular Life Sciences: CMLS, 2022).

Data set [1] has as its target T1, LDHA (lactate dehydrogenase A) (Homo sapiens, UniProt P00338).
T1 construct: gift clone
As to the kind of experiment: spectrophotometric reduction with NADH. The format is biochemical.

For data set [2], the target named is T2, PSAT1 (Homo sapiens, UniProt Q9Y617).
T2 sequence (Q9Y617 1-370): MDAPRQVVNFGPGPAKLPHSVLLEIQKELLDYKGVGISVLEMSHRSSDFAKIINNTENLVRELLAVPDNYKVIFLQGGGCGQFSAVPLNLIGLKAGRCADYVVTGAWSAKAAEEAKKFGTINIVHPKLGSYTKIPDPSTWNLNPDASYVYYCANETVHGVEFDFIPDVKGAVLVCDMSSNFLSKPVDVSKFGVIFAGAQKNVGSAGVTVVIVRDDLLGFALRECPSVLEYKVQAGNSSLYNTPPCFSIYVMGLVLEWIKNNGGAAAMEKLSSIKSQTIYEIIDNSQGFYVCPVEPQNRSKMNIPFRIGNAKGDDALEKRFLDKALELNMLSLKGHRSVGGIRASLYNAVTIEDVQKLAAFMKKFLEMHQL
As to the kind of experiment: end-point GDH assay of alpha-ketoglutarate; LC-MS of product. Conditions: L-Glu 1 mM as donor; pH 7.2, 37 C, 16 h. In kind it is biochemical.

Data set [3] deals with T3, TAT (tyrosine aminotransferase) (Homo sapiens, UniProt P17735).
T3 sequence (P17735 41-454): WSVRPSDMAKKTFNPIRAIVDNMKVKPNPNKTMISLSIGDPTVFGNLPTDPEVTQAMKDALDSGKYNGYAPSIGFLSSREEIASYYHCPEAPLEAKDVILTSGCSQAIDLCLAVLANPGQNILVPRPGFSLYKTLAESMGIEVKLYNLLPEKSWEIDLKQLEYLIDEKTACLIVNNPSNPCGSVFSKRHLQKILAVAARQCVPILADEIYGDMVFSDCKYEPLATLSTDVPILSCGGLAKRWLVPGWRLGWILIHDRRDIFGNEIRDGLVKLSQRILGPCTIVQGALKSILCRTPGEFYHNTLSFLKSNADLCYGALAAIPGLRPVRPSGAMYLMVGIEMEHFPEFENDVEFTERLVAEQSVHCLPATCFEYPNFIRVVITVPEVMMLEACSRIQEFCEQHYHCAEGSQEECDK
As to the kind of experiment: continuous coupled assay with MDH1 and NADH. The format is biochemical. Particulars: alpha-ketoglutarate 0.5 mM as acceptor; pH 8.0; read-out: apparent KM. From the text:
continuous coupled assay with MDH1 and NADH on TAT (tyrosine aminotransferase) | the opposite is true for TAT (Fig. 3A)

Data set [4] addresses T4, MDH1 (cytosolic malate dehydrogenase) (Homo sapiens, UniProt P40925).
T4 construct: from human kidney cDNA, pET28a, His6-tagged, expressed in E. coli BL21(DE)
T4 sequence (P40925 2-334): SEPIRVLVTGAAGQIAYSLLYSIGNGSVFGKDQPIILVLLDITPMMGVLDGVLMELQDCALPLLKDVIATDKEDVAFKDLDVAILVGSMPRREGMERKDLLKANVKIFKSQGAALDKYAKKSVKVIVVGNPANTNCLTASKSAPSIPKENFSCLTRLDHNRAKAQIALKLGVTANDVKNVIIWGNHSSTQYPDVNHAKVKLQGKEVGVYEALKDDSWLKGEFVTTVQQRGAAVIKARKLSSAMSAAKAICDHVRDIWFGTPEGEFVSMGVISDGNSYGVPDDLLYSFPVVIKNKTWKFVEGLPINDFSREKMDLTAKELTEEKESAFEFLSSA
As to the kind of experiment: spectrophotometric reduction with NADH. The format is biochemical.

Substrate in data set [5]: N[C@@H](Cc1c[nH]c2ccccc12)C(=O)O
As to the kind of experiment: continuous coupled assay with MDH1 and NADH. In kind it is biochemical, Homo sapiens. Particulars: pyruvate 3 mM as acceptor, pH 8.0.

Take `CC(O)C(=O)C(=O)O` (stereo not drawn) [3-hydroxy-2-ketobutyrate]: the “spectrophotometric reduction with NADH” value in data set [1] is 3-hydroxy-2-ketobutyrate, is a substrate for LDHA.
As to `O=C(CO)COP(=O)(O)O` [DHAP], the “end-point GDH assay of alpha-ketoglutarate; LC-MS of product” value in data set [2] is “DHAP, which reacted primarily with PSAT1”.
For orientation: Km means the concentration of substrate that gives half-maximal velocity. For `N[C@@H](Cc1c[nH]c2ccccc12)C(=O)O` [L-Trp], in data set [3], the Km is greater than 10 mM.
With `O=C(O)C(=O)Cc1c[nH]c2ccccc12` [IndPy], in data set [4], the “spectrophotometric reduction with NADH” value was “recombinant MDH1 reduced with good efficiency IndPy”.

B1: GTK (glutamine transaminase K; KYAT1) (Homo sapiens) (protein)
chain: MAKQLQARRLDGIDYNPWVEFVKLASEHDVVNLGQGFPDFPPPDFAVEAFQHAVSGDFMLNQYTKTFGYPPLTKILASFFGELLGQEIDPLRNVLVTVGGYGALFTAFQALVDEGDEVIIIEPFFDCYEPMTMMAGGRPVFVSLKPGPIQNGELGSSSNWQLDPMELAGKFTSRTKALVLNTPNNPLGKVFSREELELVASLCQQHDVVCITDEVYQWMVYDGHQHISIASLPGMWERTLTIGSAGKTFSATGWKVGWVLGPDHIMKHLRTVHQNSVFHCPTQSQAAVAESFEREQLLFRQPSSYFVQFPQAMQRCRDHMIRSLQSVGLKPIIPQGSYFLITDISDFKRKMPDLPGAVDEPYDRRFVKWMIKNKGLVAIPVSIFYSVPHQKHFDHYIRFCFVKDEATLQAMDEKLRKWKVEL
notes: cytosolic enzyme
As usually defined, the kcat/Km is the second-order rate constant that governs catalysis at low substrate concentration. For B1, in data set [5], the Km stood at 0.14 ± 0.03 mM and the kcat/Km worked out at 490 ± 30 M⁻¹ s⁻¹.
